Data on 15 compounds can be found in PMC9604400, “Synthesis, Anticancer and Antitubercular Properties of New Chalcones and Their Nitrogen-Containing Five-Membered Heterocyclic Hybrids Bearing Sulfonamide Moiety” (International Journal of Molecular Sciences, 2022).

For data set [1] the following is noted: Figure 1, literature compound, cited from earlier work.
The next data set concerns the target α-glucosidase. Conditions: Figure 1, literature compound; cited from earlier work.
The next data set relates to Vero cell line. The data set is described as follows: Cytotoxicity on Vero cell line (MTT). The data set is classed as cell-based, African green monkey. The note with it: Vero IC50 / MIC M. tuberculosis H37Rv.
Data set [2] in a line: Cytotoxicity on Vero cell line (MTT). The data set is classed as cell-based, African green monkey. The note with it: African green monkey, Vero cells (African green monkey kidney, ATCC CCL-81); MTT, 24 h.
Data set [3] relates to Mycobacterium bovis BCG (ATCC 35734). The data set is described as follows: microbe, parasite or virus in culture. It is filed as cell-based. Conditions: for MIC: Mycobacterium tuberculosis variant bovis BCG, read-out: MIC Against M. bovis BCG; for MIC Against M. bovis BCG: agar dilution SPOTi. In general terms: Agar dilution tests growth on a series of plates holding different concentrations.

Data set [4] concerns Mycobacterium tuberculosis H37Rv (ATCC 27294). The data set is described as follows: microbe, parasite or virus in culture. The data set is classed as cell-based. Conditions: agar dilution SPOTi, read-out: MIC Against M. tuberculosis H37Rv.
The subject of data set [5] is 60 human cancer cell lines. The data set is described as follows: NCI-60 screen (SRB), whole panel. The data set is classed as cell-based. The note with it: Homo sapiens; single dose 10 μM, mean over 60 cell lines; over 100% = cell death; read-out: Mean growth inhibition (GI) percentage.
The test system of data set [6] is M. tuberculosis H37Rv. The data set is described as follows: Checkerboard synergism assay. It is filed as cell-based, Mycobacterium tuberculosis. Conditions: for MIC: Mycobacterium tuberculosis, H37RV, checkerboard, alone.
Experimental: The synergism assays were carried out in 96-well plates with Middlebrook 7H9 medium supplemented with OADC.
Data set [7] relates to M. tuberculosis H37Rv. The data set is described as follows: Growth curves in liquid medium and re-plating (cidal or static). It is filed as cell-based, Mycobacterium tuberculosis. The note with it: for cidal or static effect: re-plating on solid media without compound, up to 10×MIC.
Where [8] appears, read: compound in combination with AMK.
Setting [9] is: compound in combination with INH.
Where [10] appears, read: compound in combination with LVX.
The mark [11] stands for this setting: compound in combination with RIF.
Where [12] appears, read: 10×MIC, 21 days, compared with day 0.
Setting [13] is: antibiotic in combination with 20a.
[14] abbreviates: antibiotic in combination with 20f.

Converted amounts (≈) assume the structure as drawn. Read-outs that look alike come from different tables or passages of the source.

Turning to `Cc1ccc(S(=O)(=O)Nc2ccc(C(=O)/C=C/c3ccc(Br)cc3)cc2)cc1` [Compound 1], the LD50 in data set [1] was 220 µM.

One may read the IC50 as the concentration needed to halve the response being measured. As to `Cc1ccc(S(=O)(=O)Nc2ccc(C(=O)/C=C/c3ccc(O)c(O)c3)cc2)cc1` [Compound 2], the IC50 at α-glucosidase was 400 nM.

As for `NS(=O)(=O)c1ccc(N2N=C(C(F)(F)F)CC2c2ccc(F)cc2F)cc1` (centres unmarked) [Compound 4], the ED50 in data set [1] (test not given) is 7400 nM.

The term melting point denotes the temperature of the solid-liquid transition. Usually inhibition stands for the relative decrease from the control value, in per cent. `COc1cc(OC)c(S(N)(=O)=O)cc1C(=O)/C=C/c1ccc2c(c1)OCO2` [Compound 17f, (E)-5-(3-(Benzo[d][1,3]dioxol-5-yl)acryloyl)-2,4-dimethoxybenzenesulfonamide] gave a melting point of 257 to 258 °C. In addition, the “Selectivity Index (SI) (SI = IC50/MIC)” value in the data set with Vero cell line worked out at 0.07. Besides, half-maximal inhibition in [2] (IC50 at 24 h) was put at 1700 ± 1740 nM. Besides, the MIC in [3] is greater than 25 µM. Moreover, the MIC in data set [4] (Mycobacterium tuberculosis) was determined as 25 µM (≈ 9.79 µg/mL). Besides, the inhibition at 10 µM in [5] turned out to be 10.1%.

For `COc1ccc(C(=O)C=Cc2ccccc2)cc1S(=O)(=O)NNC(=O)c1ccncc1` [Compound 19a, 5-Cinnamoyl-N’-isonicotinoyl-2-methoxybenzenesulfonohydrazide], the melting point was 227 to 229 °C. Further, the “Selectivity Index (SI) (SI = IC50/MIC)” value in the data set with Vero cell line stood at 0.28. Also, the IC50 at 24 h in [2] was determined as 6320 ± 820 nM. In data set [3], the MIC is greater than 23 µM. Moreover, the MIC in [4] (Mycobacterium tuberculosis) amounted to 23 µM (≈ 10.1 µg/mL). Moreover, the inhibition at 10 µM in data set [5] turned out to be 3.63%.

For the compound `COc1ccc(/C=C/C(=O)c2ccc(OC)c(S(=O)(=O)NNC(=O)c3ccncc3)c2)cc1` [Compound 19d, (E)-N’-Isonicotinoyl-2-methoxy-5-(3-(4-methoxyphenyl)acryloyl)benzenesulfonohydrazide], the melting point was in the range of 216 to 217 °C. Moreover, in the data set on Vero cell line, the “Selectivity Index (SI) (SI = IC50/MIC)” value was determined as 0.10. The same compound returned an IC50 at 24 h in data set [2] of 2190 ± 680 nM. Besides, the MIC in [3] is greater than 21 µM. For the same compound, the MIC in data set [4] (Mycobacterium tuberculosis) came out at 21 µM (≈ 9.82 µg/mL).

`COc1cc(OC)c(S(=O)(=O)NNC(=O)c2ccncc2)cc1C(=O)C=Cc1ccccc1` [Compound 20a, 5-Cinnamoyl-N’-isonicotinoyl-2,4-dimethoxybenzenesulfonohydrazide] registered a melting point of 143 to 145 °C. Besides, the MIC in the data set on M. tuberculosis H37Rv [6] came to 5 µg/mL. In addition, in the data set with M. tuberculosis H37Rv [6] (setting [8]), the “FICI Index” value amounted to 2.00 and the “MIC Combination” value came out at 5 µg/mL. Further, in the data set with M. tuberculosis H37Rv [6] (setting [9]), the “FICI Index” value turned out to be 0.75 and the “MIC Combination” value was 1.25 µg/mL. Further, in the data set with M. tuberculosis H37Rv [6] (setting [10]), the “FICI Index” value is on record as 1.25 and the “MIC Combination” value is 1.25 µg/mL. In addition, in the data set with M. tuberculosis H37Rv [6] (setting [11]), the “FICI Index” value turned out to be 1.25 and the “MIC Combination” value came out at 5 µg/mL. In data set [2], this compound registered an IC50 at 24 h of 6050 ± 1390 nM. Besides, in [3], the MIC was determined as 11 µM (≈ 5.14 µg/mL) and the “MIC Against M. bovis BCG” value was 11 µM (≈ 5.14 µg/mL). In addition, the MIC in data set [4] (Mycobacterium tuberculosis) came out at 11 µM (≈ 5.14 µg/mL). Also, in data set [4], the MIC is 11 µM (≈ 5.14 µg/mL). The inhibition at 10 µM in data set [5] amounted to 19%.

With `COc1cc(OC)c(S(=O)(=O)NNC(=O)c2ccncc2)cc1C(=O)/C=C/c1ccc(C)cc1` [Compound 20c, (E)-N’-Isonicotinoyl-2,4-dimethoxy-5-(3-(p-tolyl)acryloyl)benzenesulfonohydrazide], the melting point is 195 to 197 °C. Besides, the inhibition at 10 µM in [5] came to 26.9%.

For the compound `COc1ccc(/C=C/C(=O)c2cc(S(=O)(=O)NNC(=O)c3ccncc3)c(OC)cc2OC)cc1` [Compound 20d, (E)-N’-Isonicotinoyl-2,4-dimethoxy-5-(3-(4-methoxyphenyl)acryloyl)benzenesulfonohydrazide], the melting point was 214 to 217 °C. In addition, in the data set on Vero cell line, the “Selectivity Index (SI) (SI = IC50/MIC)” value worked out at 0.05. In data set [2], this compound showed a half-maximal inhibitory concentration (IC50) at 24 h of 1000 ± 1200 nM. The MIC in data set [3] is greater than 20 µM. In addition, the MIC in [4] (Mycobacterium tuberculosis) was found to be 20 µM (≈ 9.95 µg/mL).

`COc1cc(OC)c(S(=O)(=O)NNC(=O)c2ccncc2)cc1C(=O)/C=C/c1cc(OC)c(OC)c(OC)c1` [Compound 20e, (E)-N’-Isonicotinoyl-2,4-dimethoxy-5-(3-(3,4,5-trimethoxyphenyl)acryloyl)benzenesulfonohydrazide]: the melting point fell in the range of 162 to 165 °C. The “Selectivity Index (SI) (SI = IC50/MIC)” value in the data set with Vero cell line is recorded as 0.03. The compound also showed an IC50 at 24 h in data set [2] of 260 ± 690 nM. Besides, in data set [3], the MIC was 9 µM (≈ 5.02 µg/mL) and the “MIC Against M. bovis BCG” value is 9.0 µM (≈ 5.02 µg/mL). Also, the MIC in [4] (Mycobacterium tuberculosis) turned out to be 9 µM (≈ 5.02 µg/mL). Besides, the “growth of M. tuberculosis H37Rv in liquid medium (optical density)” value (“growth of M. tuberculosis H37Rv” below) in the data set on M. tuberculosis H37Rv [7] (1×MIC, after 21 days) is given as “moderate growth”. Moreover, the “growth of M. tuberculosis H37Rv” value in the data set with M. tuberculosis H37Rv [7] (setting [12]) was “modest growth”. The “cidal or static effect” value with M. tuberculosis H37Rv [7] is “bacteriostatic”.

As for `COc1cc(OC)c(S(=O)(=O)NNC(=O)c2ccncc2)cc1C(=O)/C=C/c1ccc2c(c1)OCO2` [Compound 20f, (E)-5-(3-(Benzo[d][1,3]dioxol-5-yl)acryloyl)-N’-isonicotinoyl-2,4-dimethoxybenzenesulfonohydrazide], the melting point was in the range of 150 to 152 °C. In addition, in the data set with M. tuberculosis H37Rv [6], the MIC turned out to be 5 µg/mL. In the data set with M. tuberculosis H37Rv [6] (setting [8]), the “FICI Index” value is given as 2.00 and the “MIC Combination” value was found to be 5 µg/mL. In the data set with M. tuberculosis H37Rv [6] (setting [9]), the “FICI Index” value worked out at 1.00 and the “MIC Combination” value was found to be 2.5 µg/mL. In the data set with M. tuberculosis H37Rv [6] (setting [10]), the “FICI Index” value worked out at 1.00 and the “MIC Combination” value was found to be 2.5 µg/mL. Besides, in the data set on M. tuberculosis H37Rv [6] (setting [11]), the “MIC Combination” value was determined as 1.25 µg/mL. Also, the “interaction (from FICI)” value in the data set with M. tuberculosis H37Rv [6] (in combination with rifampicin) is listed as “synergism”. Besides, in the data set with Vero cell line, the “Selectivity Index (SI) (SI = IC50/MIC)” value came to 0.26. In data set [2], this compound showed an IC50 at 24 h of 2550 ± 930 nM. For the same compound, the MIC in data set [3] was 20 µM (≈ 10.2 µg/mL). The MIC in data set [4] (Mycobacterium tuberculosis) stood at 9.8 µM (≈ 5.01 µg/mL). Further, the “growth of M. tuberculosis H37Rv” value with M. tuberculosis H37Rv [7] (1×MIC, after 21 days) is “moderate growth”. The “growth of M. tuberculosis H37Rv” value in the data set with M. tuberculosis H37Rv [7] (setting [12]) is recorded as “no significant growth”. In the data set on M. tuberculosis H37Rv [7], the “cidal or static effect” value was “bacteriostatic”. In data set [5], the inhibition at 10 µM was found to be 4.19%.

Consider `COc1ccc(C2=NN(C=O)C(c3ccc(Cl)cc3)C2)cc1S(N)(=O)=O` (centres unmarked) [Compound 22a, 5-(5-(4-Chlorophenyl)-1-formyl-4,5-dihydro-1H-pyrazol-3-yl)-2-methoxybenzenesulfonamide], for which the melting point fell in the range of 230 to 231 °C. Besides, the inhibition at 10 µM in data set [5] stood at 2.15%.

Consider `COc1ccc(C2=NN(C(N)=S)C(c3ccc(Cl)cc3)C2)cc1S(N)(=O)=O` (centres unmarked) [Compound 27a, 5-(4-Chlorophenyl)-3-(4-methoxy-3-sulfamoylphenyl)-4,5-dihydro-1H-pyrazole-1-carbothioamide], for which the melting point is 206 to 208 °C. Besides, in data set [5], the inhibition at 10 µM was -0.54%.

Regarding `COc1cc(OC)c(S(N)(=O)=O)cc1C1=NN(C(N)=S)C(c2ccc(Cl)cc2)C1` (centres unmarked) [Compound 27d, 5-(4-Chlorophenyl)-3-(2,4-dimethoxy-5-sulfamoylphenyl)-4,5-dihydro-1H-pyrazole-1-carbothioamide], the melting point was in the range of 223 to 225 °C. Moreover, the inhibition at 10 µM in data set [5] came to 2.34%.

Turning to `NNC(=O)c1ccncc1` [Isoniazid, isoniazid, reference compound], the figures for the MIC (in the data set on M. tuberculosis H37Rv [6]; in data set [3]; in data set [4] (Mycobacterium tuberculosis)) were 0.012 µg/mL, 0.36 µM (≈ 0.0494 µg/mL) and 0.36 µM (≈ 0.0494 µg/mL), respectively. For the same compound, the “FICI Index” value was determined as 0.75 in the data set with M. tuberculosis H37Rv [6] (setting [13]) and 1.00 with M. tuberculosis H37Rv [6] (setting [14]). Also, the “MIC Combination” value in the data set on M. tuberculosis H37Rv [6] (setting [13]) and in the data set on M. tuberculosis H37Rv [6] (setting [14]) was 0.006 µg/mL each time.
